One may read the melting point as the temperature of the solid-liquid transition.

64 compounds from a melting point compilation (Tetko et al.; mined from patent text by program, amines drawn as free bases though some values may be those of a salt) can be followed below.

On to `CC(C)c1cc(C(C)C)c(C(O)C(=O)c2ccc(C(C)C)c(OS(N)(=O)=O)c2C(C)C)c(C(C)C)c1` (centres undefined), for which the melting point was 96 to 101 °C.
As for `CSCC1(c2onc(-c3ccc(O)cc3)c2-c2ccccc2)CC1`, the figure is 176 to 177 °C; as for `CN1c2ccc(C=C(c3ccccc3)c3ccccc3)cc2S(=O)(=O)c2cc(C=C(c3ccccc3)c3ccccc3)ccc21`, 246 to 252 °C; as for `O=c1oc2cc(O)ccc2c2c1CCCCC2`, 189 to 190 °C.
As for `COc1ccc(-c2[nH]nc3c2C(=O)c2c(NC(=O)NCc4ccc(N)cc4)cccc2-3)cc1`, the figure is greater than 300 °C; as for `COc1cc(C2CCOC2=O)c([N+](=O)[O-])cc1OC` (centres undefined), 144 to 147 °C; as for `CC(C)(C=O)C(=O)C(C)(Cc1ccc(C(C)(C)C)cc1)C(=O)O` (centres undefined), 116 to 118 °C.
The value for `CC(C)NC(=O)NCCc1c2c3c(nc(N)c2nn1C)CCCC3` was 237 to 238 °C; that for `CCC(=O)Oc1cc(OC)cc(OC)c1C(=O)C=Cc1ccc(Cl)cc1` was 136 °C; that for `Nc1ccn(/C=C2/CC2(CO)CO)c(=O)n1` was 250 to 253 °C.
Consider `Cc1cc(-c2ccc3c(=O)c(C(=O)O)cn(C4CC4)c3c2C)cnc1CO`, for which the melting point lay in the range of 225 to 226 °C.
As for `O=c1c2c[nH]c3ccccc3c-2nn1-c1ncccn1`, the melting point is greater than 360 °C.
The value for `CCNC1CCN(c2nc(N3CCOCC3)c3ncnc(N(C)Cc4ccccc4)c3n2)CC1` was 92 to 94 °C; that for `CCOC(=O)COc1ccccc1C(=O)Nc1ccc(O)cc1` was 208 to 210 °C.
The value for `CC(C)[C@@H](CO)NS(=O)(=O)c1ccc(Br)cc1` was 89 to 94 °C.
The value for `Cc1cc(NC2=NCCN2)n(-c2ccc(F)cc2)n1` was 213 to 215 °C; that for `N#Cc1ccccc1-c1ccc2[nH]c(Cc3ccccc3)nc2c1` was 133 to 140 °C.
`c1ccc2c(c1)CSSC2` showed a melting point of 77 to 78 °C.
As for `FC(F)(F)Oc1cccc(CN2CCC(Nc3nnc(C(F)(F)F)s3)CC2)c1`, the figure is 116 °C; as for `COc1ccc2c(=O)c(NC(=O)C(=O)O)coc2c1`, 236 to 238 °C; as for `CC1(C)CCC(C)(C)c2cc(C(O)C#Cc3ccc(C(=O)O)cc3)ccc21` (centres undefined), 146 to 147 °C.
As for `Cc1nc(-c2ccc(Cl)cc2)sc1C(N)=O`, the figure is 236 to 237 °C; as for `Cc1c(NC(=O)c2ccc(-c3ccc(F)cc3)cc2)ccc2cc(CN3CCCC3Cc3ccccc3)cnc12` (centres undefined), 172 to 174 °C.
The value for `CCSc1cc2ccccc2c(=O)n1Cc1ccccc1` was 79 to 80 °C.
`COc1ccc(OC)c2c1CCC(Nc1ccc(O)cc1)C2` (centres undefined) yielded a melting point of 188 to 189 °C.
On to `CNC(=O)Oc1ccc(N=C(C)c2ccccc2O)c(C)c1`, for which the melting point lay in the range of 133 to 138 °C.
The value for `CC(C)Cn1c(=O)n(C)c(=O)c2c(SCCCC(N)=O)n(Cc3cccc4ccccc34)cc21` was 162 to 165 °C; that for `Clc1ccc(C=CC(C=Cc2ccc(Cl)cc2)=NNC2=NCC(c3ccccc3)(c3ccccc3)N2)cc1` was 227 °C.
As for `CCOCc1cccc2cc(C(N)=O)oc12`, the figure is 133 to 134 °C; as for `CNC[C@H]1CC[C@H](c2nc3ccccc3[nH]2)CC1`, 232 to 235 °C.
As for `COc1ccc(COc2cccc(C(=O)Nc3ccc(S(C)=O)cc3)c2)cc1` (centres undefined), the figure is 135 to 136 °C.
In turn, `O=C1CCC(C(=O)O)C(=O)N1` (centres undefined) registered a melting point of 116 to 118 °C.
Compound `CC(=O)NCC1CN(c2ccc(N3CCN(c4nc5ccc(F)cc5o4)CC3)c(F)c2)C(=O)O1` (centres undefined) had a melting point of 233 to 234 °C.
As for `O=C(CCc1ccccc1)Nc1ccc(C(=O)O)c(O)c1`, the figure is 165 to 167 °C; as for `C[C@@H](NC(=O)c1c[nH]c2ncc(-c3nn(C)c4ccsc34)nc12)C(=O)N1CC(C#N)C1`, 310 to 320 °C; as for `CCOC(=O)C(C)(C)c1nsc2ccc([N+](=O)[O-])cc12`, 75 to 77 °C.
`CC(C)CC(=O)Oc1n[nH]c(=O)c2nc3cc(Cl)ccc3c(O)c12` had a melting point greater than 400 °C.
As for `CON(C(=N)N)c1nc(C)cc(C)n1`, the figure is 134 to 136 °C; as for `CC(=O)N1CCSc2cccc(C)c2C1`, 71 to 73 °C; as for `Cc1cc2c(c3c1NC(=O)CC3)OC(CN=[N+]=[N-])C2` (centres undefined), 146 to 149 °C.
As for `Cc1c(OCC(C)(C)CS(N)(=O)=O)nn2ccnc2c1C`, the figure is 222 to 225 °C; as for `CC(=NOc1ccc(Cl)cc1)c1ccc(C(F)(F)F)cc1NS(=O)(=O)C(F)(F)F`, 89 to 90 °C.
As for `CN1CCC(c2[nH]c(=O)c3ccccc3c2-c2ccc(Cl)cc2)CC1`, the melting point is 254 to 256 °C.
The value for `O=C1CCCN1C(=O)NCCS(=O)c1ccccn1` (centres undefined) was 120 °C; that for `Nc1cc(O)nc2c(-c3ccncc3)c(-c3ccc(F)cc3)nn12` was greater than 250 °C; that for `CCCCc1oc2ccccc2c1C(=O)c1ccc2c(Br)c(OCc3nnn[nH]3)ccc2c1` was 160 to 162 °C.
The value for `CC(=CCCC(C)C1CCC2(C)C3=CCC4C(C)(CCC5(OCCO5)C4(C)C)C3=CCC12C)CO` (centres undefined) was 165 to 168 °C; that for `Cc1c(CNC(=O)NO)c2cc(OCc3ccc4ccccc4n3)ccc2n1Cc1ccc(Cl)cc1` was 184 to 186 °C; that for `O=C(O)c1cc(F)cc(C(F)(F)F)c1O` was 76 to 83 °C.
As for `CC(C)c1ccc(C2(OC(=O)N(C)C)C(=O)c3ccccc3C2=O)c(OC(=O)N(C)C)c1`, the figure is 203 to 205 °C; as for `Cc1c(C(=O)Nc2ccc(N3CCC(c4ccccc4)CC3)c(C#N)c2)cnn1-c1ccc(Cl)cc1`, 186 to 188 °C; as for `COC(=O)c1ccc(OC)c(Nc2cc(Cl)cc(Cl)c2)c1`, 134 to 135 °C.
Turning to `CC1CC(=O)NN=C1c1ccc(NCC(C)(C)N)cc1` (centres undefined), the melting point lay in the range of 184 to 185 °C.
The compound `NC(=S)NCC(c1ccccc1)c1ccccc1` returned a melting point of 205 to 207 °C.
As for `Cc1nnc(-c2ccc3occ(-c4ccc(CO)cc4)c3c2)o1`, the figure is 157 to 158 °C; as for `COc1ccc2sc(C34CC5CC(CC(C5)C3)C4)cc(=O)c2c1`, 140 °C.
As for `CCc1nc(C2CC2)c(C(=O)O)n1Cc1ccc2oc(-c3ccccc3C(=O)NS(=O)(=O)c3ccccc3)c(Br)c2c1`, the figure is 176 to 178 °C; as for `CC(=O)N1CCC(n2c(=O)[nH]c3ccccc32)CC1`, 212 to 214 °C.
The value for `O=C1OC[C@@H](CO)N1c1nc(-c2ccc(Br)cc2)cs1` was 189 to 192 °C; that for `Cc1sc2c(Br)c3ccccc3c(-c3ccc(O)cc3)c2c1C` was 165 to 168 °C; that for `O=c1c(-c2ccccc2)cc(Cl)c2n1C=CSc1ccsc1-2` was 149 to 151 °C.
On to `Nc1nc2ccccc2c2c1ncn2CCCCNC(=O)[C@@H]1C[C@H]1c1ccccc1` (relative stereo), for which the melting point was found to be 77 °C.
The value for `CCCCc1c(/C=C/C(=O)OC)cc(OC)c2ccccc12` was 63 to 64 °C; that for `CCCCC(=O)OC1C(O)C(CO)OC1n1cnc2c(OC)nc(N)nc21` (centres undefined) was 83 to 86 °C.
